In ChEMBL document CHEMBL1141175, “Synthesis and antiviral evaluation of cis-substituted cyclohexenyl and cyclohexanyl nucleosides” (J Med Chem, 2005):
pEC50: −log10 of the molar value.

What was measured:
[1] = tested on: Coxsackievirus; experiment: Effective concentration required to inhibit Coxsackie B3 virus induced cytopathicity in vero cells; assay type: functional, organism-based
[2] = tested on: Human alphaherpesvirus 1; experiment: Effective concentration required to inhibit herpes simplex virus type 1 Kos strain induced cytopathicity in Hel cells; assay type: functional, organism-based; settings: Human alphaherpesvirus 1, HEL

SMILES	pEC50 [1]	pEC50 [2]
N#Cc1cc([N+](=O)[O-])ccc1Oc1ccc(Cl)c(Cl)c1	5.23	–
Nc1nc(O)c2ncn([C@H]3C=CC[C@@H](CO)C3)c2n1 (racemic)	< 3.70	< 3.70
Cc1cn([C@H]2CCC[C@@H](CO)C2)c(=O)[nH]c1=O (racemic)	3.77	< 3.70
Cc1cn([C@H]2C=CC[C@@H](CO)C2)c(=O)[nH]c1=O (racemic)	< 3.70	4.20
Nc1ccn([C@H]2C=CC[C@@H](CO)C2)c(=O)n1 (racemic)	< 3.70	< 3.70
Nc1ccn([C@H]2CCC[C@@H](CO)C2)c(=O)n1 (racemic)	< 3.70	4.21
Nc1ncnc2c1ncn2[C@H]1C=CC[C@@H](CO)C1 (racemic)	< 3.70	< 3.70
Nc1ncnc2c1ncn2[C@H]1CCC[C@@H](CO)C1 (racemic)	< 3.70	< 3.70
Nc1nc2c(ncn2COCCO)c(=O)[nH]1 [ACYCLOVIR]	–	6.49
Nc1nc2c(ncn2COC(CO)CO)c(=O)[nH]1 [GANCICLOVIR]	–	7.22
